Measured values as given in patent US10058577B2, “Thermo-stable strains, products and methods thereof” (TRIPHASE PHARMACEUTICALS PVT. LTD., priority 2014, dated 2018).

Experiments:
[1] = tested on: Lactobacillus acidophilus TSP-La1; experiment: Antibiotic susceptibility by disk diffusion method; format: cell-based; details: for zone of inhibition at 30 µg/disc: TSPLA1, 30 μg; for zone of inhibition at 10 µg/disc: TSPLA1, 10 μg; for zone of inhibition at 5 µg/disc: TSPLA1, 5 μg
Method: (§1) In order to ascertain the sensitivity of the thermostable strains in the food products towards antibiotics, Antibiotic susceptibility profile for Lactobacillus acidophilus is created by disk diffusion method. The susceptibility criteria used is established by Charteris et al. The Lactobacillus acidophilus is grown in Man Rogosa Sharpe Agar (MRSA).
67.15 grams is suspended in 1000 ml distilled water and heated to boiling to dissolve the medium completely. It is sterilized by autoclaving at 15 lbs pressure (121° C.) for 20 minutes, mixed well and poured into sterile Petri plates.
The concentration of the tested antibiotics has been included depending upon their minimum inhibitory concentrations.

[2] = tested on: Lactobacillus plantarum TSP-Lp1; experiment: Antibiotic susceptibility by disk diffusion method; format: cell-based; details: for zone of inhibition at 30 µg/disc: TSPLP1, 30 μg; for zone of inhibition at 10 µg/disc: TSPLP1, 10 μg; for zone of inhibition at 5 µg/disc: TSPLP1, 5 μg
Method: as §1
The same set of study as the previous example is conducted using Lactobacillus plantarum strain of the present disclosure and the results for the study are depicted in Table No. 13 as below. The susceptibility criteria used is established by Charteris et al. The Lactobacillus acidophilus is grown in Man Rogosa Sharpe Agar, […]

[3] = Lactobacillus acidophilus, read-out: MIC Results
[4] = Lactiplantibacillus plantarum, read-out: MIC Results

CC1(C)S[C@@H]2[C@H](NC(=O)[C@H](N)c3ccc(O)cc3)C(=O)N2[C@H]1C(=O)O [Amoxicillin]
Resistant/Sensitive ([1]; 30 μg): Sensitive
zone of inhibition at 30 µg/disc [1, 3]: 32 mm
Resistant/Sensitive ([2]; 30 μg): Sensitive
zone of inhibition at 30 µg/disc [2, 4]: 39 mm

CC1(C)S[C@@H]2[C@H](NC(=O)[C@H](N)c3ccccc3)C(=O)N2[C@H]1C(=O)O [Ampicillin]
Resistant/Sensitive ([1]; 10 μg): Resistant
zone of inhibition at 10 µg/disc [1, 3]: 10 mm
MIC Results ([2]; 10 μg): No Zone
Resistant/Sensitive ([2]; 10 μg): Resistant

CC(=O)OCC1=C(C(=O)O)N2C(=O)[C@@H](NC(=O)Cc3cccs3)[C@H]2SC1 [Cephalothin]
Resistant/Sensitive ([1]; 30 μg): Sensitive
zone of inhibition at 30 µg/disc [1, 3]: 25 mm
Resistant/Sensitive ([2]; 30 μg): Sensitive
zone of inhibition at 30 µg/disc [2, 4]: 23 mm

O=C(N[C@H](CO)[C@H](O)c1ccc([N+](=O)[O-])cc1)C(Cl)Cl [Chloramphenicol]
Resistant/Sensitive ([1]; 30 μg): Sensitive
zone of inhibition at 30 µg/disc [1, 3]: 29 mm
Resistant/Sensitive ([2]; 30 μg): Sensitive
zone of inhibition at 30 µg/disc [2, 4]: 31 mm

O=C(O)c1cn(C2CC2)c2cc(N3CCNCC3)c(F)cc2c1=O [Ciprofloxacin]
Resistant/Sensitive ([2]; 10 μg): Sensitive
zone of inhibition at 10 µg/disc [2, 4]: 31 mm

CCC[C@@H]1C[C@@H](C(=O)N[C@@H]([C@H]2O[C@H](SC)[C@H](O)[C@@H](O)[C@H]2O)[C@H](C)Cl)N(C)C1 [Clindamycin]
zone of inhibition at 2 µg/disc ([1]; Lactobacillus acidophilus, TSPLA1, 2 μg, read-out: MIC Results): 31 mm
zone of inhibition at 2 µg/disc ([2]; Lactiplantibacillus plantarum, TSPLP1, 2 μg, read-out: MIC Results): 34 mm

CC[C@H]1OC(=O)[C@H](C)[C@@H](O[C@H]2C[C@@](C)(OC)[C@@H](O)[C@H](C)O2)[C@H](C)[C@@H](O[C@@H]2O[C@H](C)C[C@H](N(C)C)[C@H]2O)[C@](C)(O)C[C@@H](C)C(=O)[C@H](C)[C@@H](O)[C@]1(C)O [Erythromycin]
Resistant/Sensitive ([1]; 15 μg): Resistant
zone of inhibition at 15 µg/disc ([1]; Lactobacillus acidophilus, TSPLA1, 15 μg, read-out: MIC Results): 14 mm
Resistant/Sensitive ([2]; 15 μg): Sensitive
zone of inhibition at 15 µg/disc ([2]; Lactiplantibacillus plantarum, TSPLP1, 15 μg, read-out: MIC Results): 14 mm

COc1cccc(OC)c1C(=O)N[C@@H]1C(=O)N2[C@@H]1SC(C)(C)[C@@H]2C(=O)O [Methicillin]
Resistant/Sensitive ([1]; 5 μg): Sensitive
zone of inhibition at 5 µg/disc [1, 3]: 30 mm
Resistant/Sensitive ([2]; 5 μg): Sensitive
zone of inhibition at 5 µg/disc [2, 4]: 15 mm

Cc1onc(-c2ccccc2)c1C(=O)N[C@@H]1C(=O)N2[C@@H]1SC(C)(C)[C@@H]2C(=O)O [Oxacillin]
MIC Results ([1]; 1 μg): No Zone
Resistant/Sensitive ([1]; 1 μg): Resistant
MIC Results ([2]; 1 μg): No Zone
Resistant/Sensitive ([2]; 1 μg): Resistant

CO[C@H]1/C=C/O[C@@]2(C)Oc3c(C)c(O)c4c(O)c(c(/C=N/N5CCN(C)CC5)c(O)c4c3C2=O)NC(=O)/C(C)=C\C=C\[C@H](C)[C@H](O)[C@@H](C)[C@@H](O)[C@@H](C)[C@H](OC(C)=O)[C@@H]1C [Rifampicin]
zone of inhibition at 5 µg/disc [1, 3]: 35 mm
zone of inhibition at 5 µg/disc [2, 4]: 43 mm

[H]/N=C(/N)N[C@H]1[C@H](O)[C@@H](O)[C@H](O[C@@H]2O[C@@H](C)[C@](O)(C=O)[C@H]2O[C@@H]2O[C@@H](CO)[C@H](O)[C@@H](O)[C@@H]2NC)[C@@H](N/C(N)=N\[H])[C@@H]1O [Streptomycin]
Resistant/Sensitive ([1]; 10 μg): Sensitive
zone of inhibition at 10 µg/disc [1, 3]: 18 mm
Resistant/Sensitive ([2]; 10 μg): Sensitive
zone of inhibition at 10 µg/disc [2, 4]: 20 mm

CN(C)[C@@H]1C(O)=C(C(N)=O)C(=O)[C@@]2(O)C(O)=C3C(=O)c4c(O)cccc4[C@@](C)(O)[C@H]3C[C@@H]12 [Tetracycline]
zone of inhibition at 30 µg/disc [1, 3]: 11 mm
zone of inhibition at 30 µg/disc [2, 4]: 14 mm

CN[C@H](CC(C)C)C(=O)N[C@H]1C(=O)N[C@@H](CC(N)=O)C(=O)N[C@H]2C(=O)N[C@H]3C(=O)N[C@H](C(=O)N[C@H](C(=O)O)c4cc(O)cc(O)c4-c4cc3ccc4O)[C@H](O)c3ccc(c(Cl)c3)Oc3cc2cc(c3O[C@@H]2O[C@H](CO)[C@@H](O)[C@H](O)[C@H]2O[C@H]2C[C@](C)(N)[C@H](O)[C@H](C)O2)Oc2ccc(cc2Cl)[C@H]1O [Vancomycin]
MIC Results ([1]; 30 μg): No Zone
Resistant/Sensitive ([1]; 30 μg): Resistant
MIC Results ([2]; 30 μg): No Zone
Resistant/Sensitive ([2]; 30 μg): Resistant

Gentamycin
MIC Results ([1]; 10 μg): 10 mm
Resistant/Sensitive ([1]; 10 μg): Resistant
MIC Results ([2]; 10 μg): 8 mm
Resistant/Sensitive ([2]; 10 μg): Resistant
